Assay results published in a melting point compilation (Tetko et al.).

Structure (SMILES) | melting point
Cc1nc(Cl)c(Cl)nc1C | 77 to 79 °C
Cc1ccc(-c2nn(-c3ccccc3)cc2C(=O)O)cc1C | 215 to 217 °C
O=C(O)c1cc(Cl)ccc1OCC(F)(F)F | 121 to 123 °C
O=Cc1ccn(-c2ccccc2)n1 | 49 to 51 °C
C1CC(C2CCOCC2)CCN1 | 52 to 54 °C
Oc1ccc(-c2nnco2)cc1 | 210 to 212 °C
Cc1ccc(C(=O)NC2CC2)cc1N | 114 to 116 °C
Cc1ccc(N)c(C)c1S(=O)(=O)NC1CC1 | 96 to 98 °C
CC1CCC(C(C)C)C(NC(=O)c2ccnc(F)c2)C1 (stereo not given) | 79 to 81 °C
CC1(C)C(=O)NC(=O)N1CC#N | 147 to 149 °C
Cc1csc(N2CCC(=O)CC2)n1 | 59 to 61 °C
COC(=O)c1noc(C)c1C(=O)c1ccccc1 | 90 to 92 °C
NC(=O)CCOc1cccc(F)c1 | 94 to 96 °C
Nc1ccccc1S(=O)(=O)C(F)F | 65 to 67 °C
CCC(=O)NC(C)C(=O)O (stereo not given) | 89 to 91 °C
COC(=O)C(C)NC(=O)c1ccc(Cl)c([N+](=O)[O-])c1 (stereo not given) | 102 to 104 °C
O=C1CC(C(=O)O)CS1 (stereo not given) | 108 to 110 °C
c1ccc2sc(C3CCCCN3)nc2c1 (stereo not given) | 200 to 202 °C
Sc1nncn1-c1cccc(Cl)c1 | 187 to 189 °C
CCc1n[nH]c(N)n1 | 154 to 156 °C
CC(C)c1nonc1N | 43 to 45 °C
NC(=O)Nc1ccc(C(=O)O)cc1 | 296 to 298 °C
CCOc1ccc2c(c1)C=C(C(=O)O)CO2 | 186 to 188 °C
Cc1cc([N+](=O)[O-])ccc1S(N)(=O)=O | 155 to 157 °C
Nc1ccc(C(=O)N2CCCC2)c(F)c1 | 139 to 141 °C

Structure (SMILES) | melting point
CCOC(=O)Cc1nnc(N)s1 | 156 to 158 °C
O=C(CCl)c1cc2c3c(c1)CC(=O)N3CCC2 | 159 to 161 °C
Cc1ccccc1-c1nnc(S)o1 | 188 to 190 °C
CC(C)CN(CC(C)C)C(=O)CC(=O)N(CC(C)C)CC(C)C | 51 to 53 °C
O=C(O)c1[nH]nc(-c2ccccc2)c1Br | 260 to 262 °C
Cc1ccc2c(O)c(C(=O)O)cnc2n1 | 279 to 281 °C
Cc1cc(S(=O)(=O)Cl)c(Cl)cc1F | 44 to 46 °C
NCc1cccc(NC(=O)C2CCCC2)c1 | 86 to 88 °C
COc1ccc(C(C)(C#N)NC(=O)C(F)(F)F)cc1OC (stereo not given) | 145 to 147 °C
ClC(Cl)(Cl)C(c1ccc(Br)cc1)c1ccc(Br)cc1 | 144 to 146 °C
Cc1cc(Cl)nnc1C | 45 to 47 °C
NCCNC(=O)c1ccc(Br)cc1 | 38 to 40 °C
NC(=O)CO | 124 to 126 °C
O=C(O)c1ccc(N2CCCS2(=O)=O)cc1 | 247 to 249 °C
NC(=O)c1ccc(NCc2ccccc2)c(N)c1 | 169 to 171 °C
Nc1ccc(OCC(F)(F)F)c(C(=O)O)c1 | 190 to 192 °C
O=C(CCl)Nc1cccc(S(=O)(=O)N=C2CCCCCN2)c1 | 133 to 135 °C
COc1cc(C(C[N+](=O)[O-])c2c[nH]c3ccccc23)ccc1O (stereo not given) | 115 to 117 °C
N#Cc1c(N)nc2sc(C(=O)Nc3ccc(Br)cc3)c(N)c2c1-c1ccco1 | 257 to 259 °C
O=C(O)CC1SC(=Nc2ccccc2)NC1=O (stereo not given) | 202 to 204 °C
O=c1cc(CS)nc2ccccn12 | 119 to 121 °C
Nc1c[nH]nc1-c1ccccc1 | 147 to 149 °C
COC(=O)c1cc([N+](=O)[O-])c(C)cc1C | 57 to 59 °C
COC(=O)c1cc(F)c(F)cc1N | 79 to 81 °C
COC(=O)c1ccsc1N1CCC(N)C1=O (stereo not given) | 88 to 90 °C

Structure (SMILES) | melting point
Cc1ccccc1C(N)=NO | 81 to 83 °C
CCS(=O)(=O)c1ccc(CC(=O)O)cc1 | 53 to 55 °C
Cc1nn(C)c(-n2cncn2)c1N | 96 to 98 °C
COc1ccccc1CNC(N)=O | 124 to 126 °C
O=C(O)c1ccnc(OC2CCC2)c1 | 153 to 155 °C
CCC(C(=O)Nc1cccc(C(N)=S)c1)c1ccccc1 (stereo not given) | 148 to 150 °C
NC(=O)c1nn(CC(=O)O)c(=O)c2ccccc12 | 220 to 222 °C
Cc1nn(C)c2c1NCCS2(=O)=O | 110 to 112 °C
c1ccc(NC2=NCCCS2)cc1 | 124 to 126 °C
CCOC(=O)c1c(-c2ccc(C)o2)csc1N | 93 to 95 °C
O=C1CCC(C(F)(F)F)CN1 (stereo not given) | 141 to 143 °C
O=C(O)c1cccc(S(=O)(=O)Nc2ccccc2-c2ccccc2)c1 | 164 to 166 °C
O=C(O)CCOc1ccc([N+](=O)[O-])cc1 | 116 to 118 °C
O=C(O)CC(O)(c1ccccc1)C1CC1 (stereo not given) | 105 to 107 °C
N#CCc1nc2scc(C3CC3)c2c(=O)[nH]1 | 284 to 286 °C
CC(C)(C)OC(=O)NC1CCC2CNCC21 (stereo not given) | 109 to 111 °C
Cc1ccc(C(=O)O)cc1N1C(=O)C2CC=CCC2C1=O (stereo not given) | 221 to 223 °C
Nc1cccc(NC(=O)CO)c1 | 150 to 152 °C
C1CC2OC1C1CNCC21 (stereo not given) | 53 to 55 °C
NC(=S)Nc1ccc2c(c1)OCCO2 | 211 to 213 °C
COc1cc(N)c(C(=O)O)c(Br)c1 | 134 to 136 °C
Cc1nn(C)c(C)c1CC(=O)N1CCC(C(=O)O)CC1 | 167 to 169 °C
CS(=O)(=O)c1cc(S(=O)(=O)Cl)c(Cl)s1 | 124 to 126 °C
Cc1nc2scc(C)n2c1C=O | 153 to 155 °C
COC(=O)C1CCC(C(=O)O)CC1 (stereo not given) | 85 to 87 °C

Structure (SMILES) | melting point
Brc1cccc2[nH]ncc12 | 165 to 167 °C
NCC(O)COc1ccc(F)cc1 (stereo not given) | 71 to 73 °C
Nc1nnc(Cc2ccc(F)cc2)[nH]1 | 197 to 199 °C
CNc1ncccc1C(=O)O | 220 to 222 °C
O=C(O)C1CCN(S(=O)(=O)c2cccc3c2N=S=N3)CC1 | 232 to 234 °C
CCCCCCOc1ccc(CC(=O)O)cc1 | 79 to 81 °C
O=S1(=O)CCCN1c1cccc(Cl)c1 | 85 to 87 °C
FC(F)(F)c1ccc2nnc(C3CCCNC3)n2c1 (stereo not given) | 226 to 228 °C
CSc1ccc(CN2CCNCC2)cc1 | 53 to 55 °C
O=C(O)c1ccccc1NS(=O)(=O)c1ccc2[nH]c(=O)[nH]c2c1 | 225 to 227 °C
CS(=O)(=O)c1cc(C#N)ccn1 | 143 to 145 °C
Cc1ccc(C2(C(=O)O)CCOCC2)cc1 | 189 to 191 °C
O=C(O)c1cc(C(=O)O)cc(S(=O)(=O)Cl)c1 | 217 to 219 °C
NC(=S)c1cnc2ccccn12 | 214 to 216 °C
COCC(C)(O)C(=O)O (stereo not given) | 53 to 55 °C
Sc1nnnn1-c1ccc2c(c1)OCCO2 | 143 to 145 °C
O=C(O)/C=C/c1csc2ccccc12 | 225 to 227 °C
O=C(O)c1ccc(-c2cnccn2)cn1 | 199 to 201 °C
Cc1ccc(C)c(-n2ncc(N)c2C)c1 | 62 to 64 °C
CN(c1ccc(C(=O)O)cc1)C1CCCCC1 | 148 to 150 °C
CCOc1ccc(NC(=O)CCl)cc1 | 149 to 151 °C
O=C(COc1cccc2ccccc12)N1CCNCC1 | 141 to 143 °C
O=C(O)Cc1csc(NC(=O)c2ccco2)n1 | 223 to 225 °C
COC(=O)c1nonc1N | 115 to 117 °C
Cc1ccc(COc2cccc(N)c2)cc1 | 81 to 83 °C

Structure (SMILES) | melting point
CN(C)c1ncnc(Cl)c1CCl | 64 to 66 °C
Cc1ccc(C(NC(=O)CCl)c2cccs2)cc1 (stereo not given) | 110 to 112 °C
CCc1cc2c(C)cc(=O)oc2cc1O | 216 to 218 °C
O=C(O)c1cc2cc(Br)cc(Br)c2o1 | 279 to 281 °C
CCOc1ccc(-c2nn(-c3ccccc3)cc2C=O)cc1Cl | 100 to 102 °C
O=C(O)c1ccc(Br)c(O)c1 | 219 to 221 °C
Cc1nc(Cl)c2c3c(sc2n1)CCC3 | 91 to 93 °C
NNC(=O)CSc1ccc(Cl)cc1 | 100 to 102 °C
O=C(O)CC1NC(=O)N(c2ccc(F)cc2)C1=O (stereo not given) | 224 to 226 °C
Cc1ccc(NC(N)=O)cc1C | 170 to 172 °C
N#CCN1CCN(c2ncccn2)CC1 | 99 to 101 °C
Nc1nc(-c2ccccc2C(F)(F)F)cs1 | 115 to 117 °C
O=C(c1cn[nH]c1)N1CCN(c2ccccn2)CC1 | 194 to 196 °C
CC(CO)CC(C)(C)N (stereo not given) | 64 to 66 °C
CCNc1nc(C(=O)OCC)cs1 | 92 to 94 °C
O=C(O)CCc1nc2ccccc2c(=O)[nH]1 | 239 to 241 °C
N#CCC(=O)Nc1ccccc1Br | 136 to 138 °C
O=C(O)CCOc1ccccc1[N+](=O)[O-] | 121 to 123 °C
O=C(O)C1CCCN1C(=O)c1ccc([N+](=O)[O-])o1 (stereo not given) | 154 to 156 °C
Cc1sc2nc(CC#N)[nH]c(=O)c2c1C | 283 to 285 °C
CC(NC(=O)OC(C)(C)C)C(O)Cc1ccccc1 (stereo not given) | 116 to 118 °C
CC(C)(C)NCCS(C)(=O)=O | 39 to 41 °C
CCC1Oc2c(Cl)cccc2NC1=O (stereo not given) | 139 to 141 °C
NCCNS(=O)(=O)Cc1ccccc1 | 88 to 90 °C
CCCCC1CCC(C(=O)CC#N)CC1 (stereo not given) | 52 to 54 °C

Structure (SMILES) | melting point
NC(=NO)c1ccc(N2CCCCC2)nc1 | 165 to 167 °C
Cc1nc(Cl)nc(C)c1Cc1ccccc1 | 42 to 44 °C
Cc1[nH]c(SCC(=O)O)nc1Cc1ccccc1 | 183 to 185 °C
Cc1cc(C)n(-c2ccc(CC#N)cc2)n1 | 45 to 55 °C
CNc1ccnc(C)c1 | 59 to 61 °C
Cc1c(N)cccc1NC(=O)c1ccccc1I | 198 to 200 °C
O=C1COc2cccc(O)c2N1 | 247 to 249 °C
O=C(O)C(Cc1ccccc1)NC(=O)C12CC3CC(CC(C3)C1)C2 (stereo not given) | 162 to 164 °C
ClCc1coc(-c2cccc(Cl)c2)n1 | 76 to 78 °C
O=C(O)C=CC(=O)Nc1ccc(F)c(Cl)c1 | 189 to 191 °C
COC(=O)/C(C#N)=C/c1ccc(OC)cc1 | 105 to 107 °C
NS(=O)(=O)c1ccc(SCC(=O)O)cc1 | 157 to 159 °C
CS(=O)(=O)Nc1ccc(C(F)(F)F)cc1N | 126 to 128 °C
Nc1ccc(OCC2CCOCC2)cc1 | 108 to 110 °C
O=C(O)c1c[nH]cc1C1CC1 | 150 to 152 °C
OCc1cc(F)cc(CO)c1O | 119 to 121 °C
O=C(O)C1CSC2(c3ccc(F)cc3)CCC(=O)N12 (stereo not given) | 202 to 204 °C
CC(C)NC(=O)N(C)c1ccc(O)cc1 | 158 to 160 °C
CC(C)(C)c1ccc(C2(N)CCCC2)cc1 | 120 to 122 °C
O=Cc1cc(C(=O)O)co1 | 165 to 167 °C
